The subject of assay [1] is Ca-dependent Mg-ATPase release of p29 vesicles from F-actin. The assay can be described thus: release of F-actin-bound p29 vesicles by Ca-dependent Mg-ATPase. It is filed as biochemical, rat. Particulars: 5 mM EGTA. From the text:
To determine whether this is a direct interaction between the vesicle and F-actin or is mediated by other actin-bound proteins, e.g., myosin V, the release of p29 vesicle bound to F-actin by activating a Ca-dependent Mg-ATPase was investigated. Synaptic vesicle-bound myosin V is released from F-actin by activating the Ca-dependent MgATPase found in the actin binding head of myosin V (Prekeris et al, 1997, J. Cell Biol. 137: 1589-1601; Nascimento et al., 1996, J. Biol. Chem. 271:17561-17569). In this experiment, confluent monolayers of astrocytes were grown in serum-free media for 16 hours, then D2 activity was induced with bt2cAMP and hydrocortisone, and the p29 vesicle was affinity radiolabeled with BrAc[^125I]T4. Cell lysates containing approximately 50,000 cpm of BrAc[^125I]T4-labeled p29 were pretreated with 10 nM […] at 37° C., followed by an additional 20 minute incubation with 0.1 mM Ca^2+, 1 mM Mg^2+, 0.1 mM ATP, or 5 mM EGTA. Triton-insoluble (F-actin bound) pellets were prepared as described herein. […] Triton-insoluble (F-actin-bound) pellets were separated from the Triton-soluble (vesicle) fraction by microfuge centrifugation (14,000×g for five minutes) and the distribution of p29 was determined by y-counting, and by SDS-PAGE analysis.

A further assay has as its system T4 deiodinases. Particulars: cited from earlier work.
A further assay concerns the target transthretin (Homo sapiens, UniProt P02766). Particulars: cited from earlier work.
The subject of another assay is D2 activity. Particulars: in astrocytes; cited from earlier work.
In a further assay the test system is astrocytes. The assay can be described thus: subcellular distribution of immunoreactive TRα2-derived proteins in cultured astrocytes. It is filed as cell-based, rat. The settings on record: serum-free medium, treated 20 minutes, 0.1% bovine serum albumin carrier. The text has this:
The subcellular distribution of immunoreactive thyroid hormone receptor-derived proteins in primary brain cell cultures and in cultured astrocytes was examined. Primary brain cell cultures were fixed with 0.4% paraformaldehyde, permeabilized with Triton X-100®, and stained for TRα-derived proteins using specific antisera directed against the unique C-termini of TRα1 and TRα2 proteins, and visualized by staining with a secondary tagged antibody. Consistent with previous observations (Kolodny et al., 1985, Endocrinol. 117: 1848-1857), immunoreactive TRα1 proteins were found in the nuclei of astrocytes and neuronal cells. However, TRα2-derived proteins were not localized to the nucleus in either astrocytes or neurons, but appeared as donut shaped structures located throughout the astrocyte or as discreet punctate signals along neuronal fibers. This latter pattern is diagnostic for synapses in neuronal cultures (Wong et al., 1999, Neurosci. 89:221-233), and is consistent with the presence of ΔTRα2-derived protein in nerve terminals.
The subcellular distribution of immunoreactive TRα2-derived proteins in cultured astrocytes was influenced by the presence of either T4 or rT3. In these experiments astrocytes were grown in serum-free medium, treated for 20 minutes with either […] or rT3, and fixed, permeabilized, and stained as described above. […]

In the next assay the target is ΔTRα1 (Rattus norvegicus, UniProt P63059). The assay can be described thus: [125I]rT3 displacement from cell-free translated ΔTRα1. It is filed as binding. Particulars: cell-free translated polypeptide. The text has this: (§1) ΔTRα1 and ΔTRα2 polypeptides were synthesized by cell-free translation of appropriate segments of the rat ΔTRα1 and ΔTRα2 cDNA using the coupled transcription-translation kit from Promega® (TNT) according to the manufacturer's instructions.

The target of assay [2] is binding of p29^GFP vesicles to F-actin. The assay can be described thus: modified in vitro actin binding assay with p29^GFP-labeled vesicles. It counts as biochemical, rat. The settings on record: 0-100 nM, 20 minutes at 37° C.; read-out: EC50, increase in quantity of p29^GFP bound to F-actin. As to the method: To define the specific region(s) of the myosin V tail that interact with the p29 vesicle, a series of deletion mutations were created based on the dominant negative effect of exogenous myosin V tail on p29 vesicle binding. Competition analysis of the myosin V deletion mutations on T4-dependent binding of p29 vesicles to F-actin was performed using a modified in vitro assay in which a GFP-tagged p29 fusion protein (p29^GFP) replaced the radioaffinity labeled native p29 (Farwell et al., 1990, J. Biol. Chem. 265:18546-18553; Farwell et al., 1993, J. Biol. Chem. 268:5055-5062). This allowed direct evaluation of the binding of fluorescent vesicles to F-actin without affinity radiolabeling of the p29 and subsequent SDS-PAGE analysis.
Specific fluorescence at 510 nm (excitation, 488 nm) was then determined in the resuspended Triton-insoluble pellets.
To determine if the myosin V tail could be captured by the p29^GFP vesicle, an exogenous myosin V^tail was introduced into astrocytes constitutively expressing p29^GFP by infection with Ad5-ΔMyo V^tail virus particles and examined the effects of T4 on the binding of the myosin V^tail to immunopurified p29^GFP vesicles. Astrocytes expressing p29^GFP were grown in serum-free media and treated for 16 hours with 1 mM bt2cAMP and 100 nM hydrocortisone. A separate pool of astrocytes was treated in serum-free media supplemented with 10 μM retinoic acid. Cells were collected by scraping, and lysed by two freeze-thaw cycles. […] Triton-soluble (vesicle) and Triton-insoluble (F-actin) fractions were separated by microflige centrifugation. Triton pellets were resuspended in 300 μl of PBS and fluorescence at 510 nm (excitation 488 nm) determined and relative fluorescence was reported as arbitrary units. Cells were treated with 10 nM T4 for twenty minutes and a Triton-soluble supernatant was prepared. Vesicles containing the p29^GFP were immunoprecipitated by anti-GFP IgG (2 μg/ml) and protein in the immunoprecipitates were resolved by SDS-PAGE. Immunoblot analysis of vesicle-associated myosin V was performed using the anti-myosin V antibody directed against the C-terminus.
The quantity of each mutant protein synthesized was determined by [^35 S]-methionine incorporation. Astrocytes expressing p29^GFP were grown in serum-free media and treated for 16 hours with […] bt2cAMP and 100 nM hydrocortisone. p29^GFP V-lysate and F-lysate were prepared as described herein. 100 μg aliquots of p29^GFP V-lysate and F-lysate were pre-incubated, in triplicate, for 20 minutes at 37° C. in the presence of individual Δ myosin V mutant proteins (˜2-3 pmol polypeptide/50 μl mixture) were added to the actin-binding assay and pre-incubated for 20 minutes at 37° C. T4 (10 nM) was then added, the mixtures incubated for 20 minutes at 37° C., and F-actin bound, fluorescent p29^GFP vesicles were then isolated in the Triton-insoluble pellet.
V lysates prepared from astrocytes over-expressing p29^GFP were pre-incubated for 30 minutes at room temperature with antisera raised against ΔTRα2, ΔTRα1, the C-terminus of MyoV (encoded by MyoV^tail, FIG. 5), the coiled-coil region of MyoV (encoded by MyoV^coil-coil, FIG. 5) and GFP (green fluorescent protein). T4 (10 nM) and actin fiber-containing F-lysate was then added, the mixtures incubated at 37° C. for 20 minutes, and the Triton-insoluble fraction isolated by centrifugation.

In a further assay the target is T1, ΔTRα2 (Rattus norvegicus, UniProt P63059).
T1 sequence (P63059 256-492): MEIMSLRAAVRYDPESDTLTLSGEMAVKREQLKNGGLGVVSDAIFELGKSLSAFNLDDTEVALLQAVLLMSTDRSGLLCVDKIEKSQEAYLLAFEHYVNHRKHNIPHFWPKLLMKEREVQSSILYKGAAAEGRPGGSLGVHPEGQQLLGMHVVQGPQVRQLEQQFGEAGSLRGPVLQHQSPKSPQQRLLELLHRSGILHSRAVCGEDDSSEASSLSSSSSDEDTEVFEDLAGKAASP
The assay can be described thus: [125I]rT3 displacement from cell-free translated ΔTRα2. It counts as binding. The settings on record: cell-free translated polypeptide.
From the text: as §1

Assay [3] has as its target T2, ΔTRα2 (T4 Inactivating Protein; TIP) (Rattus norvegicus, UniProt P63059).
T2 construct: ΔTRα2 is encoded by exons 8-10 resulting in an approximately 25 kd protein
The assay can be described thus: rT3 binding displacement in nuclei-free extracts of cultured rat astrocytes. The procedure: The properties of thyroid hormone binding to non-nuclear components of the cell were examined using ΔTRα2 (T4 Inactivating Protein; TIP)-containing, nuclei-free extracts of cultured rat astrocytes. […] Both rT3 and T4 specifically displace rT3 with Kd's of approximately 0.3-0.5 nM.

Assay [4] deals with cerebellar granule neurons. The assay can be described thus: release of FM1-43-loaded synaptic vesicles from cerebellar granule neurons under continuous stimulus. Particulars: 10 nM hormone; continuous stimulation by 50 mM KCl; vs no hormone controls; first order kinetics assumed. It is filed as cell-based, rat. The procedure: Granule neurons were grown for 7 days and rendered hormone free by growth in serum-free medium as detailed above. Coverslips were then placed in a perfusion chamber, mounted on the stage of a laser scanning confocal microscope and perfused at 1 ml/min at 25° C. with perfusion buffer (119 mM NaCl, 2.5 mM KCl, 2 mM CaCl2, 2 mM MgCl2, 25 mM HEPES (pH 7.4), 30 mM glucose, and […] AP-5). The effects of different hormones on synaptic vesicle trafficking were then determined. […] Depolarizing KCl was then removed from the perfusion buffer and the cells were exposed to FM1-43 for an additional 30 seconds to insure complete loading of recycling synaptic vesicles. Loaded cells were then washed free of dye and the cells were perfused for ten minutes at rest.
Images of a single field of neuronal fibers were then taken immediately before adding a second depolarizing solution (perfusion buffer containing 50 mM KCl) and at one and two minutes after beginning the continuous stimulation by 50 mM KCl. Thirty to forty-five individual FM1-43 labeled nerve terminals were identified in the baseline images (taken prior to depolarization) and the change in fluorescence (DF) for each nerve terminal determined at the one and two minute time points. FIGS. 11A and 11B show the results of analysis of the hormone specificity of synaptic vesicle trafficking (FIG. 11A) and the influence of individual myo5a mutants (FIG. 11B) on synaptic vesicle transport in granule neurons.
To evaluate the role of myo5a in synaptic vesicle transport, three different myo5a constructs were introduced into the neurons by replication-deficient adenoviral vectors (Δmyo5a^tail(MyoV^tail), Δmyo5a^c-term(MyoV^1830)and ΔMyo5a^CC(MyoV^cc) see FIG. 5) as described above. […] Neurons were infected with purified Ad5-constructs (MOI=10) 48 hours prior to the synaptic vesicle trafficking study, and allowed to recover in hormone (T4) supplemented medium. […] This modest influence of the VBD mutant on synaptic vesicle retention is likely to be due to the loss of the kinesin-binding domain that limits its delivery to nerve terminals.

In a further assay the test system is deiodination. Particulars: cited from earlier work.

T2 sequence (P63059 whole entry, stated change not applied): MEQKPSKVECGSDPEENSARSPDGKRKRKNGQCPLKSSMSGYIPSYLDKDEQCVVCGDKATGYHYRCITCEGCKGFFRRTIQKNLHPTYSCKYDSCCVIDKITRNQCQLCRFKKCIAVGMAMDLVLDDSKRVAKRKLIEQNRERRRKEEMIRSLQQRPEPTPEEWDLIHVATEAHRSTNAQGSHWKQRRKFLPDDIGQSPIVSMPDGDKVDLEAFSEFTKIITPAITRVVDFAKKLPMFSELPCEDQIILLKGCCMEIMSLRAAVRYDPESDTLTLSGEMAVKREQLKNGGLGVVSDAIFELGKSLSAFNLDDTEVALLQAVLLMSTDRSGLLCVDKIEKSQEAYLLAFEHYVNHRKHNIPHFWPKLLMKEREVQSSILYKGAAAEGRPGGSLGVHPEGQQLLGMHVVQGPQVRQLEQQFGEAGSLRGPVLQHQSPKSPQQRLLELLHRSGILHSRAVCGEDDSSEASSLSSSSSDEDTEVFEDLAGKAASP

For the compound `O=C(O)CN(CCOCCOCCN(CC(=O)O)CC(=O)O)CC(=O)O` [EGTA], in [1], the “block of Ca2+-stimulated, Mg2ATPase-dependent release of p29 from F-actin” value is reported as “more than 50%”.

For the compound `Cc1c(-c2cc(Br)c(O)c(Br)c2)oc2ccc(O)cc2c1=O` [EMD21388], the “inhibition of T4 deiodinases” value with T4 deiodinases was “can inhibit”. Further, at transthretin, the “block of the binding of T4 to transthretin” value was “competitively block”. Besides, the “quantity of D2 activity” value in the assay with D2 activity is reported as “decreases the quantity of D2 activity”.

Turning to `N[C@@H](Cc1ccc(Oc2cc(I)c(O)c(I)c2)c(I)c1)C(=O)O` [rT3, 3, 3′, 5′-triiodothyronine], the “subcellular distribution of TRα2-derived proteins” value in the assay with astrocytes is “coalescence of the TRα2-derived proteins around the perinuclear space”. For the same compound, the Kd (as a rule, a measure of binding affinity in units of concentration) was 0.3 to 1 nM at ΔTRα1, 0.3 to 1 nM on ΔTRα2 and 0.3 to 0.5 nM in [3]. Besides, the concentration for a half-maximal effect (EC50) (usually the concentration that produces a half-maximal response) in [2] was about 0.5 nM. Besides, in assay [4], the “decrease of the rate of FM1-43 release” value came to 75%.

Take `O=C(CCc1ccc(O)cc1)c1c(O)cc(O)cc1O` [phloretin]: the inhibition of deiodination result in the assay on deiodination is on record as “potent inhibitor”.

(Values after patent US7374890B2, “Methods for identifying compounds that modulate ΔTRα2 activity” (University of Massachusetts, priority 2000, dated 2008).)
